Reference: ChEMBL document CHEMBL6127083, “A mini-review on integrase inhibitors: The cornerstone of next-generation HIV treatment” (Eur J Med Chem, 2024)
Each block holds one compound with its values, some of them ahead of it.

Tests used:
[1] = test system: Human immunodeficiency virus 1; assay: Antiviral activity against HIV-1 3B infected in human MT4 cells assessed as reduction in viral replication incubated for 5 days by MTT assay; type: functional, organism-based; conditions: Human immunodeficiency virus 1, 3B, MT4, 120 h
[2] = target: T1, Human immunodeficiency virus type 1 integrase (Human immunodeficiency virus 1, UniProt Q7ZJM1); assay: Inhibition of HIV-1 integrase
T1 sequence (Q7ZJM1 whole entry): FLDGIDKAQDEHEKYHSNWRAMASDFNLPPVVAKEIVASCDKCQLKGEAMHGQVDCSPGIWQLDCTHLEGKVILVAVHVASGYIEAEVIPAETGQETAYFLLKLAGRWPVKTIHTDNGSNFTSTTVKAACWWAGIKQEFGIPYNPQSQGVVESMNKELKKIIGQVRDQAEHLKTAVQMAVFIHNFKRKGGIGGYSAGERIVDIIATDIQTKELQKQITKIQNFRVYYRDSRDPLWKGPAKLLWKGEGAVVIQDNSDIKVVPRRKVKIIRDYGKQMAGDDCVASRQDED

[3] = target: T1, Human immunodeficiency virus type 1 integrase; assay: Inhibition of HIV-1 integrase incubated for 30 mins by strand transfer activity
[4] = test system: Human immunodeficiency virus 1; assay: Antiviral activity against HIV-1 IIIB infected in human MT4 cells assessed as protection against virus induced cytopathic effect; type: functional, organism-based; conditions: Human immunodeficiency virus 1, IIIB
[5] = test system: Human immunodeficiency virus 1; assay: Antiviral activity against HIV-1 IIIB infected in human MT2 cells assessed as reduction in virus induced cytopathic effect incubated overnight by ELISA method; type: functional, organism-based; conditions: Human immunodeficiency virus 1, 3B
[6] = target: Human immunodeficiency virus type 1 integrase (Human immunodeficiency virus 1) (UniProt Q7ZJM1); assay: Inhibition of HIV-1 integrase at 100 uM relative to control
Human immunodeficiency virus type 1 integrase (Human immunodeficiency virus 1), sequence (Q7ZJM1 as listed by the source): as the sequence (Q7ZJM1 whole entry) above

[7] = Cytotoxicity against human TZM-bl cells assessed as reduction in cell viability incubated for 48 hrs by MTT assay; type: toxicity, cell-based
[8] = test system: Human immunodeficiency virus 1; assay: Antiviral activity against HIV1 IIIB harboring S230N mutant infected in MT4 cells assessed as reduction in virus induced cytopathic effect incubated for 5 days by MTT assay; type: functional, organism-based; conditions: Human immunodeficiency virus 1, IIIB, MT4, 120 h
[9] = Inhibition of wild type HIV integrase strand transfer activity; set-up: species or system Human immunodeficiency virus
[10] = test system: Human immunodeficiency virus 1; assay: Antiviral activity against HIV1 IIIB harboring N155H mutant infected in MT4 cells assessed as reduction in virus induced cytopathic effect incubated for 5 days by MTT assay; type: functional, organism-based; conditions: Human immunodeficiency virus 1, IIIB, MT4, 120 h
[11] = target: Human immunodeficiency virus type 1 integrase (Human immunodeficiency virus 1) (UniProt Q7ZJM1); assay: Inhibition of HIV-1 integrase at 20 uM relative to control
[12] = Half life in rat; type: ADME; conditions: in vivo
[13] = target: T1, Human immunodeficiency virus type 1 integrase; assay: Inhibition of HIV-1 integrase strand transfer activity
[14] = target: Human immunodeficiency virus type 1 reverse transcriptase (Human immunodeficiency virus 1, UniProt Q72547); assay: Inhibition of recombinant HIV-1 reverse transcriptase associated RNase H extracted from Escherichia coli BL21 (DE3) by microplate reader analysis
[15] = test system: Human immunodeficiency virus 1; assay: Antiviral activity against HIV-1 3B infected in human MT4 cells assessed as reduction in virus-induced cytopathic effect measured for 5 days by MTT assay; type: functional, organism-based; conditions: Human immunodeficiency virus 1, 3B, MT4, 120 h
[16] = test system: Human immunodeficiency virus 1; assay: Antiviral activity against HIV1 harboring E138K mutant infected in MT4 cells assessed as reduction in virus induced cytopathic effect incubated for 5 days by MTT method; type: functional, organism-based; conditions: Human immunodeficiency virus 1, MT4, 120 h
[17] = Oral bioavailability in rat at 2 mg/kg by LC-MS/MS analysis; type: ADME, organism-based; conditions: in vivo
[18] = test system: Human immunodeficiency virus 1; assay: Antiviral activity against HIV1 IIIB harboring E138K mutant infected in MT4 cells assessed as reduction in virus induced cytopathic effect incubated for 5 days by MTT assay; type: functional, organism-based; conditions: Human immunodeficiency virus 1, IIIB, MT4, 120 h

SMILES: N#CCCc1cccc(C(=O)CC(=O)C(=O)O)c1
- IC50 [1]: > 25 µM

SMILES: CCCCCn1c(=O)c(C(=O)Nc2cccc([N+](=O)[O-])c2O)c(O)c2ccccc21
- IC50 [2]: 9 µM

- IC50 [3]: 3.11 µM
SMILES: O=C(O)c1cc2ccc(Nc3ccc(F)cc3)cc2[nH]1

- EC50 [4]: 0.2 µM
SMILES: O=C(CCC(=O)/C(O)=C/C(=O)c1cccc(Cc2ccccc2F)c1)/C(O)=C/C(=O)c1cccc(Cc2ccccc2F)c1

- EC50 [5]: 17 µM
SMILES: O=C(O)/C(O)=C/C(=O)c1ccc(C(c2cccc(C(=O)/C=C(\O)C(=O)O)c2)c2ccccc2F)cc1 (centres undefined)

- EC50 [5]: 4.29 µM
SMILES: O=C(O)/C(O)=C/C(=O)c1cc2ccccc2n1-c1ccccc1

- IC50 [2]: < 0.1 µM
SMILES: CC(C)Oc1ccc(Cc2ccccc2)cc1C(=O)/C=C(\O)C(=O)O

- EC50 [5]: 4.29 µM
SMILES: COC(=O)/C(O)=C/C(=O)c1cc2cc3c(cc2n1-c1ccccc1)OCO3

- inhibition [6]: 50%
SMILES: NNC(=O)c1ncn(-c2ccc(Br)cc2)c1-c1cccc(F)c1

SMILES: COc1ccc(C(=O)CC(=O)C(=O)O)cc1CN=[N+]=[N-]
- IC50 [1]: > 25 µM

SMILES: [N-]=[N+]=NCc1cc(CN=[N+]=[N-])cc(C(=O)CC(=O)C(=O)O)c1
- IC50 [1]: 5 µM

SMILES: COc1ccc(-c2ccc3c(-c4ccc(F)cc4F)cn(C)c3n2)cc1
- CC50 at 48 h [7]: 49.3 µM

- IC50 [2]: 0.17 µM
SMILES: CC1COC2(C1)Cn1cc(C(=O)NCc3ccc(F)cc3F)c(=O)c(O)c1C(=O)C2(C)C (centres undefined)

SMILES: CC(C)N1CCn2cc(C(=O)NCc3ccc(F)cc3F)c(=O)c(O)c2C1=O
- IC50 [8]: 3 µM
- IC50 [9]: 1.7 µM
- IC50 [10]: 5 µM

SMILES: [N-]=[N+]=NCc1ccc(C(=O)CC(=O)C(=O)O)cc1CN=[N+]=[N-]
- IC50 [1]: 14.3 µM

- IC50 [3]: 32.3 µM
SMILES: O=C(O)c1cc2ccccc2[nH]1 [INDOLE-2-CARBOXYLIC ACID]

- inhibition [11]: 39.9%
SMILES: COc1ccc2[nH]c(=O)c(CNC3CCCC3)cc2c1

- half-life [12]: 6.2 h
SMILES: C[C@@H]1CCO[C@H]2Cn3cc(C(=O)NCc4ccc(F)cc4F)c(=O)c(O)c3C(=O)N12 [DOLUTEGRAVIR]

- IC50 [2]: 0.14 µM
SMILES: CC1COC2(C1)[C@H](C)n1cc(C(=O)NCc3ccc(F)cc3F)c(=O)c(O)c1C(=O)C2(C)C (some centres undefined)

SMILES: Cn1cc(-c2ccc3c(c2)OCO3)c2ccc(-c3ccncc3)nc21
- CC50 at 48 h [7]: > 200 µM

- IC50 [13]: 2.4 µM
SMILES: O=C(NCc1c(F)cc(F)cc1F)c1cn2c(c(O)c1=O)C(=O)N1[C@H]3CC[C@H](C3)O[C@@H]1C2 [BICTEGRAVIR]

- IC50 [3]: 11.7 µM
SMILES: CCOC(=O)c1cc2cc(NC(=O)c3cnccn3)ccc2[nH]1

- IC50 [14]: 0.36 µM
SMILES: O=C(NCc1ccccc1)C1C(=O)N(O)C(=O)c2ccccc21 (centres undefined)

- IC50 [2]: 0.1 µM
SMILES: CC(C)Oc1ccc(Cc2ccccc2)cc1C(=O)CC(=O)C(=O)O

SMILES: O=C(O)/C(O)=C/C(=O)c1nc2ccccc2n1Cc1ccccc1F
- EC50 [15]: 40 µM

SMILES: C[C@H]1CO[C@@H]2Cn3cc(C(=O)NCc4ccc(F)cc4F)c(=O)c(O)c3C(=O)N12 [CABOTEGRAVIR]
- IC50 [13]: 1.8 µM
- EC50 [16]: 4.77 µM

- IC50 [2]: 1.23 µM
SMILES: CC1COC2(C1)Cn1cc(C(=O)NCc3cccc(Cl)c3F)c(=O)c(O)c1C(=O)C2(C)C (centres undefined)

- IC50 [2]: 1.2 µM
SMILES: O=C(O)c1ccc2ccc(/C=C/c3cc(O)c(O)c(O)c3)nc2c1O

- bioavailability [17]: 52%
SMILES: Cc1ccc(CCOc2ccc(-c3c(C)nc(C)c([C@H](OC(C)(C)C)C(=O)O)c3N3CCC(C)(C)CC3)cc2)cc1

- IC50 [3]: 10.5 µM
SMILES: O=C(O)c1[nH]c2ccc([N+](=O)[O-])cc2c1COCc1ccc(C(F)(F)F)cc1

- IC50 [2]: 0.4 µM
SMILES: O=c1cc(-c2ccc(O)c(O)c2)oc2cc(O[C@@H]3O[C@H](CO)[C@@H](O)[C@H](O)[C@H]3OS(=O)(=O)O)cc(O)c12

- EC50 [5]: 39 µM
SMILES: O=C(O)/C(O)=C/C(=O)c1ccc(OCc2ccccc2COc2cccc(C(=O)/C=C(\O)C(=O)O)c2)cc1

- EC50 [4]: 0.02 µM
SMILES: O=C(O)/C(O)=C/C(=O)c1cccc(Cc2ccccc2F)c1

SMILES: [N-]=[N+]=NCc1cccc(C(=O)CC(=O)C(=O)O)c1
- IC50 [1]: 2.1 µM

SMILES: CC(C)Cn1ccn2cc(C(=O)NCc3ccc(F)cc3F)c(=O)c(O)c2c1=O
- EC50 [18]: 0.06 µM
- IC50 [8]: 4.7 µM
- IC50 [9]: 3 µM
- IC50 [10]: 3.6 µM

SMILES: CC(C)n1ccn2cc(C(=O)NCc3ccc(F)cc3F)c(=O)c(O)c2c1=O
- EC50 [18]: 0.05 µM
- IC50 [8]: 4.8 µM
- IC50 [9]: 3.8 µM
- IC50 [10]: 4.3 µM

- IC50 [14]: 0.06 µM
SMILES: COC(=O)C1C(=O)N(O)C(=O)c2ccccc21 (centres undefined)

- IC50 [2]: 0.9 µM
SMILES: Cn1c(=O)c(C(=O)O)c(O)c2cc(-c3ccc(F)cc3)ccc21

- IC50 [3]: 10.1 µM
SMILES: CCOC(=O)c1[nH]c2ccccc2c1Nc1ccccc1OC

- IC50 [2]: 1 µM
SMILES: O=C(NCc1ccc(O)c(O)c1)c1ccc2ccc(C(=O)O)c(O)c2n1
